# Test results: PubChem BioAssay (NCI)
#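 Dose response: 5 concentrations. Exposure: 48 h. Format: 96-well plates. Endpoint: linear interpolation; highest concentration if not reached. At the GI50, growth is halved. At the TGI there is no net growth.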
# Tested on: MALME-3M melanoma
# Experiment: inhibition of tumour cell growth, NCI panel, 48 h
row,Compound,TGI [µM]
1,CC(C)(C)c1cc(C(=O)/C=C/c2c(Cl)cccc2Cl)cc(C(C)(C)C)c1O,37.6
2,O=[N+]([O-])C(=C(Cl)Cl)C(Cl)=C(Cl)Cl,0.126
3,CC1=C(C(=O)OCCO[N+](=O)[O-])C(c2cccc([N+](=O)[O-])c2)C(C(=O)OC(C)C)=C(C)N1 (stereo unspecified),51.9
4,CS(=O)(=O)OCCCCOS(=O)(=O)CF,> 46.4

# Tested on: OVCAR-8 ovarian
# Experiment: inhibition of tumour cell growth, NCI panel, 48 h
Compound,TGI [µM],GI50 [µM]
NC(N)=Nc1ccc(-c2ccc(N=C(N)N)cc2)cc1,> 100,–
O=C1c2cccnc2-c2nc(-c3ccccc3[N+](=O)[O-])cc3c2c1nc1ccccc13,44.2,13.1
CC(C)(C)c1cc(C(=O)/C=C/c2c(Cl)cccc2Cl)cc(C(C)(C)C)c1O,> 100,–
O=[N+]([O-])C(=C(Cl)Cl)C(Cl)=C(Cl)Cl,5.14,–
CC1=C(C(=O)OCCO[N+](=O)[O-])C(c2cccc([N+](=O)[O-])c2)C(C(=O)OC(C)C)=C(C)N1 (stereo unspecified),54.2,–
CS(=O)(=O)OCCCCOS(=O)(=O)CF,> 100,–

# Tested on: SNB-19 CNS
# Experiment: inhibition of tumour cell growth, NCI panel, 48 h
Compound,TGI [µM],GI50 [µM]
NC(N)=Nc1ccc(-c2ccc(N=C(N)N)cc2)cc1,> 100,–
O=C1c2cccnc2-c2nc(-c3ccccc3[N+](=O)[O-])cc3c2c1nc1ccccc13,84.7,24.2
CC(C)(C)c1cc(C(=O)/C=C/c2c(Cl)cccc2Cl)cc(C(C)(C)C)c1O,29.7,–
O=[N+]([O-])C(=C(Cl)Cl)C(Cl)=C(Cl)Cl,11.2,–
CC1=C(C(=O)OCCO[N+](=O)[O-])C(c2cccc([N+](=O)[O-])c2)C(C(=O)OC(C)C)=C(C)N1 (stereo unspecified),75.4,–
CS(=O)(=O)OCCCCOS(=O)(=O)CF,> 100,–

# Tested on: U251 CNS
# Experiment: inhibition of tumour cell growth, NCI panel, 48 h
Compound,TGI [µM],GI50 [µM]
NC(N)=Nc1ccc(-c2ccc(N=C(N)N)cc2)cc1,> 100,–
O=C1c2cccnc2-c2nc(-c3ccccc3[N+](=O)[O-])cc3c2c1nc1ccccc13,19.6,4
CC(C)(C)c1cc(C(=O)/C=C/c2c(Cl)cccc2Cl)cc(C(C)(C)C)c1O,24.5,–
O=[N+]([O-])C(=C(Cl)Cl)C(Cl)=C(Cl)Cl,7.26,–
CC1=C(C(=O)OCCO[N+](=O)[O-])C(c2cccc([N+](=O)[O-])c2)C(C(=O)OC(C)C)=C(C)N1 (stereo unspecified),28.7,–
CS(=O)(=O)OCCCCOS(=O)(=O)CF,> 100,–

# Tested on: K-562 leukemia
# Experiment: inhibition of tumour cell growth, NCI panel, 48 h
Compound,TGI [µM],GI50 [µM]
NC(N)=Nc1ccc(-c2ccc(N=C(N)N)cc2)cc1,> 100,–
O=C1c2cccnc2-c2nc(-c3ccccc3[N+](=O)[O-])cc3c2c1nc1ccccc13,> 100,> 28.8
CC(C)(C)c1cc(C(=O)/C=C/c2c(Cl)cccc2Cl)cc(C(C)(C)C)c1O,> 100,–
O=[N+]([O-])C(=C(Cl)Cl)C(Cl)=C(Cl)Cl,0.118,–
CC1=C(C(=O)OCCO[N+](=O)[O-])C(c2cccc([N+](=O)[O-])c2)C(C(=O)OC(C)C)=C(C)N1 (stereo unspecified),> 100,–
CS(=O)(=O)OCCCCOS(=O)(=O)CF,> 100,–

# Tested on: OVCAR-3 ovarian
# Experiment: inhibition of tumour cell growth, NCI panel, 48 h
Compound,TGI [µM],GI50 [µM]
NC(N)=Nc1ccc(-c2ccc(N=C(N)N)cc2)cc1,> 100,–
O=C1c2cccnc2-c2nc(-c3ccccc3[N+](=O)[O-])cc3c2c1nc1ccccc13,> 32.4,0.432
CC(C)(C)c1cc(C(=O)/C=C/c2c(Cl)cccc2Cl)cc(C(C)(C)C)c1O,25.3,–
O=[N+]([O-])C(=C(Cl)Cl)C(Cl)=C(Cl)Cl,2.24,–
CC1=C(C(=O)OCCO[N+](=O)[O-])C(c2cccc([N+](=O)[O-])c2)C(C(=O)OC(C)C)=C(C)N1 (stereo unspecified),23.6,–
CS(=O)(=O)OCCCCOS(=O)(=O)CF,> 100,–

# Tested on: SK-OV-3 ovarian
# Experiment: inhibition of tumour cell growth, NCI panel, 48 h
Compound,TGI [µM],GI50 [µM]
NC(N)=Nc1ccc(-c2ccc(N=C(N)N)cc2)cc1,> 100,–
O=C1c2cccnc2-c2nc(-c3ccccc3[N+](=O)[O-])cc3c2c1nc1ccccc13,> 100,67
CC(C)(C)c1cc(C(=O)/C=C/c2c(Cl)cccc2Cl)cc(C(C)(C)C)c1O,> 100,–
O=[N+]([O-])C(=C(Cl)Cl)C(Cl)=C(Cl)Cl,9.51,–
CC1=C(C(=O)OCCO[N+](=O)[O-])C(c2cccc([N+](=O)[O-])c2)C(C(=O)OC(C)C)=C(C)N1 (stereo unspecified),36.9,–
CS(=O)(=O)OCCCCOS(=O)(=O)CF,> 100,–

# Tested on: EKVX NSCLC
# Experiment: inhibition of tumour cell growth, NCI panel, 48 h
Compound,TGI [µM],GI50 [µM]
NC(N)=Nc1ccc(-c2ccc(N=C(N)N)cc2)cc1,> 100,–
O=C1c2cccnc2-c2nc(-c3ccccc3[N+](=O)[O-])cc3c2c1nc1ccccc13,> 74.3,31.6
CC(C)(C)c1cc(C(=O)/C=C/c2c(Cl)cccc2Cl)cc(C(C)(C)C)c1O,63.3,–
O=[N+]([O-])C(=C(Cl)Cl)C(Cl)=C(Cl)Cl,11.2,–
